Reference: PubChem BioAssay (NCI)
Values joined by “and” are separate entries in the source; they are usually repeats but may differ in a detail not shown here. Equal entries are not always repeated.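 A five-concentration, 48-hour dose response in 96-well plates underlies each endpoint, interpolated linearly between surrounding concentrations. GI50 = concentration required for 50% inhibition of growth. At the TGI there is no net growth.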

Key:
Assay in all cases: NCI-60 cell line screen, 48 h
UACC-62 melanoma = system: UACC-62 melanoma
NCI-H522 lung = system: NCI-H522 lung
MALME-3M melanoma = system: MALME-3M melanoma
SF-295 CNS = system: SF-295 CNS
KM12 colon = system: KM12 colon
A549 NSCLC = system: A549 NSCLC
UACC-257 melanoma = system: UACC-257 melanoma
NCI-H23 lung = system: NCI-H23 lung
SK-MEL-2 melanoma = system: SK-MEL-2 melanoma
SF-268 CNS = system: SF-268 CNS

| Structure (SMILES) | TGI (UACC-62 melanoma) [µM] | TGI (NCI-H522 lung) [µM] | TGI (MALME-3M melanoma) [µM] | TGI (SF-295 CNS) [µM] | TGI (KM12 colon) [µM] | TGI (A549 NSCLC) [µM] | TGI (UACC-257 melanoma) [µM] | TGI (NCI-H23 lung) [µM] | TGI (SK-MEL-2 melanoma) [µM] | TGI (SF-268 CNS) [µM] | GI50 (UACC-62 melanoma) [µM] | GI50 (MALME-3M melanoma) | GI50 (SF-295 CNS) [µM] | GI50 (KM12 colon) [µM] | GI50 (A549 NSCLC) [µM] | GI50 (NCI-H23 lung) [µM] | GI50 (SK-MEL-2 melanoma) [µM] | GI50 (SF-268 CNS) [µM] | GI50 (NCI-H522 lung) [µM] | GI50 (UACC-257 melanoma) [µM] |
| --- | --- | --- | --- | --- | --- | --- | --- | --- | --- | --- | --- | --- | --- | --- | --- | --- | --- | --- | --- | --- |
| CC1CC(c2ccccc2)=Nc2ccccc2S1(=O)=O (centres undefined) | 55.7 | 31 | 37.1 | 39.4 | 31.3 | 55.6 | 23.8 | 30.8 | 31.3 | 31.4 |  |  |  |  |  |  |  |  |  |  |
| N#CCCc1nc2ccc(Br)cc2c(=O)n1CCO | > 100 | > 100 | > 100 | > 100 | > 100 | > 100 | > 100 | > 100 | > 100 | > 100 |  |  |  |  |  |  |  |  |  |  |
| O=c1ccn(C2OC(CO)C(O)C2O)c(=O)[nH]1 (centres undefined) | > 1000 | > 1000 | > 1000 | > 1000 | > 1000 | > 1000 | > 1000 | > 1000 | > 1000 | > 1000 | > 1000 | 740 µM and > 10 µM | > 1000 | > 1000 | > 1000 | > 1000 | > 1000 | > 1000 |  |  |
| CC1(C)C=CC[C@]2(C)[C@H]3CC[C@@H]4[C@H]5[C@H](C(=O)/C=C/c6cccnc6)CC[C@]5(CO)CC[C@@]4(C)[C@]3(C)CC[C@@H]12 | 2.55 | 2.74 | 2.8 | 2.42 | 2.42 | 2.49 | 2.91 |  | 2.76 |  | 1.23 | 1.38 µM | 1.15 | 1.01 | 0.972 |  | 1.28 |  | 1.19 | 1.39 |
| CCN(CC)CCn1c2c3ccccc3ccc2c2oc(=O)c3ccccc3c21 | > 100 | > 100 | > 100 | > 100 | > 100 | > 100 | > 100 | > 100 | > 100 | > 100 |  |  |  |  |  |  |  |  |  |  |
| CC(=O)O/N=C/c1ncccc1CO | > 100 | > 100 | > 100 | > 100 | > 100 | > 100 | > 100 | > 100 | > 100 | > 100 |  |  |  |  |  |  |  |  |  |  |
| CC(=O)NC(CCCCNC(=O)OCc1ccccc1)C(=O)NCc1ccccc1 (centres undefined) | > 100 | > 100 | > 100 | > 100 | > 100 | > 100 | > 100 | > 100 | > 100 | > 100 |  |  |  |  |  |  |  |  |  |  |
| CN1CCN(CCSC2Cc3cc(Cl)ccc3Sc3ccccc32)CC1 (centres undefined) | 3.63 | 12.8 | 5.8 | 15.6 | 20.1 | 13.2 | 4.38 | 23.6 | 3.75 | 25.6 |  |  |  |  |  |  |  |  |  |  |
| CC1=CSC2=NC(c3ccc(Cl)c(Cl)c3)=CC(c3ccc(Cl)cc3)N12 (centres undefined) | > 100 | > 100 | > 100 | > 100 | > 100 | > 100 | > 100 | > 100 | > 100 | > 100 | > 100 | > 100 µM | > 100 | > 100 | > 100 | > 100 | > 100 | > 100 | > 100 | > 100 |
| COc1ccc(NC(=O)C2C(=O)N(c3ccc(OC)cc3)C(=O)/C2=N/O)cc1 (centres undefined) | 45.8 | 53.4 | 42.9 | 52.5 | 56.7 | > 78.7 | > 80.5 | > 88.1 | > 86.8 | 52.7 |  |  |  |  |  |  |  |  |  |  |
| Cc1nc(N)sc1C(=O)/C=C/c1ccc(/C=C/C(=O)c2sc(NC(=O)CCCCCCCCC(=O)Nc3nc(C)c(C(=O)/C=C/c4ccc(/C=C/C(=O)c5sc(N)nc5C)cc4)s3)nc2C)cc1 | 87.8 | > 100 | > 100 | > 100 | > 100 | > 100 | > 100 | > 100 | > 100 | > 100 |  |  |  |  |  |  |  |  |  |  |
| CC(C)c1ccc(Cc2cnc(NC(=O)c3cc(Br)cs3)s2)cc1 | > 100 | 5.76 | > 100 | 19.6 | > 100 | > 100 | > 100 | > 100 | 64.4 | > 100 | 1.38 | 3.44 µM | 2 | 2.12 | 3.65 | 3.45 | 7.43 | 5.89 | 1.48 | 7.6 |
| c1ccc2c(c1)[I+]c1ccccc1-2 | > 50 | > 50 | > 50 | > 50 | > 50 | > 50 | > 50 | > 50 | > 50 | > 50 | > 50 | > 50 µM | 35 | > 50 | > 50 | 22.9 | > 50 | > 50 | > 50 | > 50 |
| O=c1oc2ccccc2c(O)c1/C=N\c1nc(-c2ccccc2)cs1 | 19.3 | 5.71 | 27.3 | 69.2 | 39.1 | > 100 | 23 | 46.9 | 36 | 31.1 |  |  |  |  |  |  |  |  |  |  |
| CC1(C)C(=O)N(c2ccccc2)C(=O)N1c1nc2ccccc2[nH]1 | > 100 | > 100 | > 100 | > 100 | > 100 | > 100 | > 100 | > 100 | > 100 | > 100 |  |  |  |  |  |  |  |  |  |  |
| Cc1cc(/C=C2\SC(=Nc3ccccc3)N(C3CCCC3)C2=O)c(C)n1-c1ccc(Cl)cc1 | > 100 | > 100 | > 100 | > 100 | > 100 | > 100 | > 100 | > 100 | > 100 | > 100 | > 100 | > 100 µM | > 100 | > 100 | > 100 | > 100 | > 100 | > 100 | > 100 | > 100 |
| CC#CC(O)(C(=O)OC1CCCN(C)C1)C1=CC=CCC1 (centres undefined) | > 100 | > 100 | > 100 | > 100 | > 100 | > 100 | > 100 | > 100 | > 100 | > 100 |  |  |  |  |  |  |  |  |  |  |
